In one data set the target is hERG (Homo sapiens (Human), UniProt Q12809). The experiment in a line: Patch clamp assay (hERG tail currents, whole-cell). It is filed as cell-based. Conditions: hERG transfected HEK 293 cells; for hERG % Remaining 30 μM: 30 μM compound; for hERG % Remaining 100 μM: 100 μM compound; for hERG % Remaining 10 μM: 10 μM compound. (In general: The patch-clamp technique gives a direct electrical read-out from membranes.)

The next data set concerns the target Menin-MLL (Homo sapiens (Human), UniProt O00255). The experiment in a line: Determination of binding constants (Ki) to Menin-MLL (HTRF). Conditions: HTRF; 0.25 nM H-FL-Menin, 3.2 nM FITC-MLL-4-43, 24 hr incubation; read-out: Menin-MLL Ki HTRF Assay: Ki. A general note: In TR-FRET formats the signal depends on donor and acceptor labels being close together.

Structures are written as SMILES.

Chain of Menin-MLL (O00255 whole entry): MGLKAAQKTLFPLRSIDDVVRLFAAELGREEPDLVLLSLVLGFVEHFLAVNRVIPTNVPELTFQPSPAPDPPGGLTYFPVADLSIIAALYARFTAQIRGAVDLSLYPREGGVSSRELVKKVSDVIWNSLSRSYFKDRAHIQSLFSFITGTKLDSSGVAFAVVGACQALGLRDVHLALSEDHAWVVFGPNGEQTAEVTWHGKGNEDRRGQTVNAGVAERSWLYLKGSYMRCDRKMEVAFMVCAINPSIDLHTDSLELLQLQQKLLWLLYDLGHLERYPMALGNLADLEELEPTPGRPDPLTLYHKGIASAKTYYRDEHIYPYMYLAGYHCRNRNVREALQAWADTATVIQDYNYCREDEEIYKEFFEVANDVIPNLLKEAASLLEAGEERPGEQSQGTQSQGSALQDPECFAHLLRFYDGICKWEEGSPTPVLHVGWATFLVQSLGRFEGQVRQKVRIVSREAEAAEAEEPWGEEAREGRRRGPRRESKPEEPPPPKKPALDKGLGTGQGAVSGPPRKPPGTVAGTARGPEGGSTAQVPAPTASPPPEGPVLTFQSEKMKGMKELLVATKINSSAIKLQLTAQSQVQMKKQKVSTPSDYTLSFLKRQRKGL
Chain of hERG (Q12809 whole entry): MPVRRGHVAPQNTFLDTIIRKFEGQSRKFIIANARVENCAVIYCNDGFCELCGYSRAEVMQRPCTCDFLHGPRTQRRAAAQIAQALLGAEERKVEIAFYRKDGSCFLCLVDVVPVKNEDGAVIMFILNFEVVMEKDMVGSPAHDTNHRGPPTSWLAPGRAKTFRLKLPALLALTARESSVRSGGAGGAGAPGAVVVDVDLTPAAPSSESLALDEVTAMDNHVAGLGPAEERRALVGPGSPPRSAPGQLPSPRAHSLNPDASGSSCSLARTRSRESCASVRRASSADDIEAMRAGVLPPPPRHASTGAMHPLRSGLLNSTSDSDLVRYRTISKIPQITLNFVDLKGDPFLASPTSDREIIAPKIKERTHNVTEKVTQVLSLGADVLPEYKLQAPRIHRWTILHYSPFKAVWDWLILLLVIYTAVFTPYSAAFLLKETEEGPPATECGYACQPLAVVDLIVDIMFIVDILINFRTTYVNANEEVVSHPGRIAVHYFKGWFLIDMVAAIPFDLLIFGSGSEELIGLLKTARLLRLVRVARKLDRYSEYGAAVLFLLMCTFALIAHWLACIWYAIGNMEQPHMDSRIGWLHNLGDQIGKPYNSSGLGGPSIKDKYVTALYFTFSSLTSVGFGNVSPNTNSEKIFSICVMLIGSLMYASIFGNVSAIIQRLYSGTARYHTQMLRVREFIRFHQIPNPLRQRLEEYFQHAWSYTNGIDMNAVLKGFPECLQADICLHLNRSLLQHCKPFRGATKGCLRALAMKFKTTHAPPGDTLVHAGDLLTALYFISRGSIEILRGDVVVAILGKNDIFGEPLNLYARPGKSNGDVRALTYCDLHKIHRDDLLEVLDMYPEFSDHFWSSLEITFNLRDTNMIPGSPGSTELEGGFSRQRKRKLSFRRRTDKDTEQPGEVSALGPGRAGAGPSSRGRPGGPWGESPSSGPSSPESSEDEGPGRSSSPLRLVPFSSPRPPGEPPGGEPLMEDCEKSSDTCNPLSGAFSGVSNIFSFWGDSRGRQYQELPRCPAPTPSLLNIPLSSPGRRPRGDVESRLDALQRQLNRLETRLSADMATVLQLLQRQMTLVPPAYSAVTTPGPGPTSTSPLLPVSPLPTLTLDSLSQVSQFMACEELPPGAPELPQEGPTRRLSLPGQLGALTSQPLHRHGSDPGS
Procedure for hERG: The 35 mm culture dishes upon which cells were seeded at a density allowing single cells to be recorded were placed on the dish holder of the microscope and continuously perfused (at approximately 1 mL/min) with the bath solution described in section 4.6. All solutions applied to cells including the pipette solution were maintained at room temperature (19° C. to 30° C.). After formation of a Gigaohm seal between the patch electrodes and individual hERG stably transfected HEK 293 cells (pipette resistance range: 2.0 MΩ2 to 7.0 MΩ; seal resistance range: >1GΩ) the cell membrane across the pipette tip was ruptured to assure electrical access to the cell interior (whole-cell patch-configuration). In case the quality of the seal was poor, the process of seal formation was repeated with a different cell and a new pipette. As soon as a stable seal could be established, hERG outward tail currents were measured upon depolarization of the cell membrane to +20 mV for 2s (activation of channels) from a holding potential of −80 mV and upon subsequent repolarization to −40 mV for 3 s. This voltage protocol (as shown below) was run at least 10 times at intervals of 10 s. If current density was judged to be too low for measurement, another cell was recorded.
During wash-in of the test item the voltage protocol indicated above was run continuously again at 10 s intervals until the steady-state level of block was reached.
The IC50 was determined by fitting the dose response curve with a 2-parameter logistic function (amax=100%).

Regarding `CC(C)N(C(=O)c1cc(F)ccc1Oc1cncnc1N1CC2(CCN(C[C@@H]3CC[C@@H](NS(=O)(=O)N(C)C)CO3)CC2)C1)[C@@H]1CCOC1` [Compound 167, 2-((4-(7-(((2S,5R)-5-((N,N-Dimethylsulfamoyl)amino)tetrahydro-2H-pyran-2-yl)methyl)-2,7-diazaspiro[3.5]nonan-2-yl)pyrimidin-5-yl)oxy)-5-fluoro-N-isopropyl-N-((R)-tetrahydrofuran-3-yl)benzamide], on hERG, the “hERG % Remaining 30 μM” value was “+++ (“+++” means ≥66%)”, the “hERG % Remaining 100 μM” value is “+++ (“+++” means ≥66%)” and the half-maximal inhibitory concentration (IC50) (usually the point on the concentration scale where inhibition reaches its midpoint) was ≥ 50000 nM. Also, at Menin-MLL, the Ki – broadly, a measure of affinity in units of concentration, obtained from inhibition or displacement – is < 1 nM.
For the compound `CCN(CC)S(=O)(=O)N[C@@H]1CC[C@@H](CN2CCC3(CC2)CN(c2ncncc2Oc2ccc(F)cc2C(=O)N(C(C)C)[C@H]2CCOC2)C3)OC1` [Compound 175, 2-((4-(7-(((2S,5R)-5-((N,N-Diethylsulfamoyl)amino)tetrahydro-2H-pyran-2-yl)methyl)-2,7-diazaspiro[3.5]nonan-2-yl)pyrimidin-5-yl)oxy)-5-fluoro-N-isopropyl-N-((S)-tetrahydrofuran-3-yl)benzamide], on hERG, the “hERG % Remaining 10 μM” value was “++ (“++” means ≥33% and <66%)”; the “hERG % Remaining 30 μM” value is listed as “+ (“+” means <33%)”. Moreover, at Menin-MLL, the Ki was < 1 nM.
`CC(C)N(C(=O)c1cc(F)ccc1Oc1cncnc1N1CC2(CCN(C[C@@H]3CC[C@@H](NS(=O)(=O)C4CC4)CO3)CC2)C1)[C@H]1CCOC1` [Compound 176, 2-((4-(7-(((2S,5R)-5-(Cyclopropanesulfonamido)tetrahydro-2H-pyran-2-yl)methyl)-2,7-diazaspiro[3.5]nonan-2-yl)pyrimidin-5-yl)oxy)-5-fluoro-N-isopropyl-N-((S)-tetrahydrofuran-3-yl)benzamide]: on hERG, the “hERG % Remaining 10 μM” value is listed as “+++ (“+++” means ≥66%)”, the “hERG % Remaining 30 μM” value is “+++ (“+++” means ≥66%)” and the “hERG % Remaining 100 μM” value is given as “+++ (“+++” means ≥66%)”. At hERG (human, HEK 293 cells stably transfected with hERG), the IC50 is ≥ 50000 nM. Besides, the inhibitory constant (Ki) at Menin-MLL was < 1 nM.
`CC(C)N(C(=O)c1cc(F)ccc1Oc1cncnc1N1CC2(CCN(C[C@@H]3CC[C@@H](NS(=O)(=O)N(C)C)CO3)CC2)C1)[C@H]1CCOC1` [Compound 177, 2-((4-(7-(((2S,5R)-5-((N,N-Dimethylsulfamoyl)amino)tetrahydro-2H-pyran-2-yl)methyl)-2,7-diazaspiro[3.5]nonan-2-yl)pyrimidin-5-yl)oxy)-5-fluoro-N-isopropyl-N-((S)-tetrahydrofuran-3-yl)benzamide]: at hERG, the “hERG % Remaining 10 μM” value is “+++ (“+++” means ≥66%)” and the “hERG % Remaining 30 μM” value was “+++ (“+++” means ≥66%)”. Also, the Ki on Menin-MLL is < 1 nM.
As for `CC(C)N(CC#N)C(=O)c1cc(F)ccc1Oc1cncnc1N1CC2(CCN(C[C@@H]3CC[C@@H](NS(=O)(=O)N(C)C)CO3)CC2)C1` [Compound 181, N-(Cyanomethyl)-2-((4-(7-(((2S,5R)-5-((N,N-dimethylsulfamoyl)amino)tetrahydro-2H-pyran-2-yl)methyl)-2,7-diazaspiro[3.5]nonan-2-yl)pyrimidin-5-yl)oxy)-5-fluoro-N-isopropylbenzamide], on hERG, the “hERG % Remaining 30 μM” value is “+++ (“+++” means ≥66%)”. In addition, the Ki on Menin-MLL is < 1 nM.
On to `CC(C)N(CC#N)C(=O)c1cc(F)ccc1Oc1cncnc1N1CC2(CCN(C[C@@H]3CC[C@@H](NS(=O)(=O)N4CCC4)CO3)CC2)C1` [Compound 182, 2-((4-(7-(((2S,5R)-5-(Azetidine-1-sulfonamido)tetrahydro-2H-pyran-2-yl)methyl)-2,7-diazaspiro[3.5]nonan-2-yl)pyrimidin-5-yl)oxy)-N-(cyanomethyl)-5-fluoro-N-isopropylbenzamide], for which the “hERG % Remaining 30 μM” value on hERG is recorded as “+++ (“+++” means ≥66%)”. The Ki on Menin-MLL was < 1 nM.
As to `CC(C)N(CCC#N)C(=O)c1cc(F)ccc1Oc1cncnc1N1CC2(CCN(C[C@@H]3CC[C@@H](NS(=O)(=O)N(C)C)CO3)CC2)C1` [Compound 183, N-(2-Cyanoethyl)-2-((4-(7-(((2S,5R)-5-((N,N-dimethylsulfamoyl)amino)tetrahydro-2H-pyran-2-yl)methyl)-2,7-diazaspiro[3.5]nonan-2-yl)pyrimidin-5-yl)oxy)-5-fluoro-N-isopropylbenzamide], the “hERG % Remaining 30 μM” value on hERG is on record as “+++ (“+++” means ≥66%)”. Also, the Ki at Menin-MLL was < 1 nM.
For `CC(C)N(CC(F)F)C(=O)c1cc(F)ccc1Oc1nncnc1N1CC2(CCN(C[C@@H]3CC[C@@H](NS(=O)(=O)N4CCC4)CO3)CC2)C1` [Compound 189, 2-((5-(7-(((2S,5R)-5-(Azetidine-1-sulfonamido)tetrahydro-2H-pyran-2-yl)methyl)-2,7-diazaspiro[3.5]nonan-2-yl)-1,2,4-triazin-6-yl)oxy)-N-(2,2-difluoroethyl)-5-fluoro-N-isopropylbenzamide] the same measures were “+++ (“+++” means ≥66%)” and < 1 nM.
For the compound `CC(C)N(C(=O)c1cc(F)ccc1Oc1nncnc1N1CC2(CCN(C[C@@H]3CC[C@@H](NS(=O)(=O)C4CC4)CO3)CC2)C1)C(C)C` [Compound 196, 2-((5-(7-(((2S,5R)-5-(Cyclopropanesulfonamido)tetrahydro-2H-pyran-2-yl)methyl)-2,7-diazaspiro[3.5]nonan-2-yl)-1,2,4-triazin-6-yl)oxy)-5-fluoro-N,N-diisopropylbenzamide], on hERG, the “hERG % Remaining 30 μM” value is given as “+++ (“+++” means ≥66%)”. Besides, at Menin-MLL, the inhibition constant Ki is < 1 nM.
For `CCNS(=O)(=O)N[C@@H]1CC[C@@H](CN2CCC3(CC2)CN(c2ncnnc2Oc2ccc(F)cc2C(=O)N(C(C)C)C(C)C)C3)OC1` [Compound 198], on hERG, the “hERG % Remaining 30 μM” value is recorded as “+++ (“+++” means ≥66%)”. Moreover, the inhibitory constant (Ki) at Menin-MLL was < 1 nM.
Take `CC(C)N(C(=O)c1cc(F)ccc1Oc1nncnc1N1CC2(CCN(C[C@@H]3CC[C@@H](NS(=O)(=O)N4CCC4)CO3)CC2)C1)C(C)C` [Compound 199, 2-((5-(7-(((2S,5R)-5-(Azetidine-1-sulfonamido)tetrahydro-2H-pyran-2-yl)methyl)-2,7-diazaspiro[3.5]nonan-2-yl)-1,2,4-triazin-6-yl)oxy)-5-fluoro-N,N-diisopropylbenzamide]: the “hERG % Remaining 30 μM” value on hERG is “+++ (“+++” means ≥66%)”. Moreover, the Ki on Menin-MLL is < 1 nM.
Take `CCN(C(=O)c1cc(F)ccc1Oc1cncnc1N1CC2(CCN(C[C@@H]3CC[C@@H](NS(=O)(=O)N4CCC[C@H]4C)CO3)CC2)C1)C(C)C` [Compound 200, N-Ethyl-5-fluoro-N-isopropyl-2-((4-(7-(((2S,5R)-5-(((R)-2-methylpyrrolidine)-1-sulfonamido)tetrahydro-2H-pyran-2-yl)methyl)-2,7-diazaspiro[3.5]nonan-2-yl)pyrimidin-5-yl)oxy)benzamide]: on hERG, the “hERG % Remaining 10 μM” value was “++ (“++” means ≥33% and <66%)”; the “hERG % Remaining 30 μM” value is recorded as “+ (“+” means <33%)”. Also, at Menin-MLL, the inhibition constant (Ki) is < 1 nM.
As to `CCN(C(=O)c1cc(F)ccc1Oc1cncnc1N1CC2(CCN(C[C@@H]3CC[C@@H](NS(=O)(=O)N4CCC[C@@H]4C)CO3)CC2)C1)C(C)C` [Compound 201, N-Ethyl-5-fluoro-N-isopropyl-2-((4-(7-(((2S,5R)-5-(((S)-2-methylpyrrolidine)-1-sulfonamido)tetrahydro-2H-pyran-2-yl)methyl)-2,7-diazaspiro[3.5]nonan-2-yl)pyrimidin-5-yl)oxy)benzamide], on hERG, the “hERG % Remaining 10 μM” value is on record as “+ (“+” means <33%)” and the “hERG % Remaining 30 μM” value was “+ (“+” means <33%)”. Further, the Ki on Menin-MLL was < 1 nM.
In the case of `CC(C)N(C(=O)c1cc(F)ccc1Oc1cncnc1N1CC2(CCN(C[C@@H]3CC[C@@H](NS(=O)(=O)N4CCC[C@@H]4C)CO3)CC2)C1)C(C)C` [Compound 202, 5-Fluoro-N,N-diisopropyl-2-((4-(7-(((2S,5R)-5-(((S)-2-methylpyrrolidine)-1-sulfonamido)tetrahydro-2H-pyran-2-yl)methyl)-2,7-diazaspiro[3.5]nonan-2-yl)pyrimidin-5-yl)oxy)benzamide], the “hERG % Remaining 30 μM” value at hERG is listed as “+ (“+” means <33%)”. The Ki on Menin-MLL was < 1 nM.
Consider `CC(C)N(C(=O)c1cc(F)ccc1Oc1cncnc1N1CC2(CCN(C[C@@H]3CC[C@@H](NS(=O)(=O)N4CCC[C@H]4C)CO3)CC2)C1)C(C)C` [Compound 203, 5-Fluoro-N,N-diisopropyl-2-((4-(7-(((2S,5R)-5-(((R)-2-methylpyrrolidine)-1-sulfonamido)tetrahydro-2H-pyran-2-yl)methyl)-2,7-diazaspiro[3.5]nonan-2-yl)pyrimidin-5-yl)oxy)benzamide], for which, at hERG, the “hERG % Remaining 30 μM” value is “+ (“+” means <33%)”. In addition, the Ki at Menin-MLL was < 1 nM.
As for `C[C@@H]1COC[C@@H](C)N1C(=O)c1cc(F)ccc1Oc1cncnc1N1CC2(CCN(C[C@@H]3CC[C@@H](NS(=O)(=O)N4CCC[C@H]4C)CO3)CC2)C1` [Compound 208, (R)-N-((3R,6S)-6-((2-(5-(2-((3R,5R)-3,5-Dimethylmorpholine-4-carbonyl)-4-fluorophenoxy)pyrimidin-4-yl)-2,7-diazaspiro[3.5]nonan-7-yl)methyl)tetrahydro-2H-pyran-3-yl)-2-methylpyrrolidine-1-sulfonamide], the “hERG % Remaining 30 μM” value at hERG was “+++ (“+++” means ≥66%)”. The Ki on Menin-MLL is < 1 nM.
For `C[C@@H]1COC[C@@H](C)N1C(=O)c1cc(F)ccc1Oc1cncnc1N1CC2(CCN(C[C@@H]3CC[C@@H](NS(=O)(=O)N4CCC[C@@H]4C)CO3)CC2)C1` [Compound 209, (S)-N-((3R,6S)-6-((2-(5-(2-((3R,5R)-3,5-Dimethylmorpholine-4-carbonyl)-4-fluorophenoxy)pyrimidin-4-yl)-2,7-diazaspiro[3.5]nonan-7-yl)methyl)tetrahydro-2H-pyran-3-yl)-2-methylpyrrolidine-1-sulfonamide] the same measures were “+++ (“+++” means ≥66%)” and < 1 nM.
